Measured values: patent publication US9586936B2, “Heteroarylamine derivatives as protein kinase inhibitors” (KOREA INSTITUTE OF SCIENCE AND TECHNOLOGY, priority 2014, dated 2017)
Read-outs that look alike come from different tables or passages of the source.

Assays:
microsomal stability [1] = assay type: in vitro ADME, Mouse; settings: for microsomal stability (% at time) / microsomal stability (% at time), Negative control (excluding NADPH): Mouse
Description: (§1) The microsomal stability of N-(2,6-dichloro-3,5-dimethoxyphenyl)-1-(6-((4-(4-ethylpiperazin-1-yl)phenyl)amino)pyrimidin-4-yl)-1H-benz[d]imidazol-2-amine synthesized in Example 1, as a representative compound of the present invention, was evaluated.

microsomal stability [2] = assay type: in vitro ADME, Rat; settings: for microsomal stability (% at time): Rat
Description: as §1

[3] = in-vivo PK profile, rat PK; settings: Sprague-Dawley rat; for MRT inf: read-out: MRT(0-∞)
Text: The in-vivo PK profile (mouse PK/ICR mice and rat PK/Sprague-Dawley rat) of N-(2,6-dichloro-3,5-dimethoxyphenyl)-1-(6-((4-(4-ethylpiperazin-1-yl)phenyl)amino)pyrimidin-4-yl)-1H-benz[d]imidazol-2-amine synthesized in Example 1 is as follows.

- microsomal stability (% at time) (microsomal stability [1]; 0 min): 100.00%
- microsomal stability (% at time), Negative control (excluding NADPH) (microsomal stability [1]; 0 min): 100.00%
- microsomal stability (% at time) (microsomal stability [1]; 5 min): 62.73%
- microsomal stability (% at time), Negative control (excluding NADPH) (microsomal stability [1]; 5 min): 103.56%
- microsomal stability (% at time) (microsomal stability [1]; 10 min): 40.77%
- microsomal stability (% at time), Negative control (excluding NADPH) (microsomal stability [1]; 10 min): 103.56%
- microsomal stability (% at time) (microsomal stability [1]; 15 min): 29.27%
- microsomal stability (% at time), Negative control (excluding NADPH) (microsomal stability [1]; 15 min): 102.67%
- microsomal stability (% at time) (microsomal stability [1]; 30 min): 11.88%
- microsomal stability (% at time), Negative control (excluding NADPH) (microsomal stability [1]; 30 min): 106.67%
- microsomal stability (% at time) (microsomal stability [1]; 45 min): 3.87%
- microsomal stability (% at time), Negative control (excluding NADPH) (microsomal stability [1]; 45 min): 106.67%
- microsomal stability (% at time) (microsomal stability [1]; 60 min): 3.64%
- microsomal stability (% at time), Negative control (excluding NADPH) (microsomal stability [1]; 60 min): 104.44%
- half-life (microsomal stability [1]; microsomes, Mouse microsomal stability): 9.93 min
- microsomal stability (% at time) (microsomal stability [2]; 0 min): 100.00%
- microsomal stability (% at time) (microsomal stability [2]; 5 min): 95.53%
- microsomal stability (% at time) (microsomal stability [2]; 10 min): 88.45%
- microsomal stability (% at time) (microsomal stability [2]; 15 min): 82.61%
- microsomal stability (% at time) (microsomal stability [2]; 30 min): 65.16%
- microsomal stability (% at time) (microsomal stability [2]; 45 min): 45.27%
- microsomal stability (% at time) (microsomal stability [2]; 60 min): 44.31%
- half-life (microsomal stability [2]; microsomes, Rat microsomal stability): 0.659 h
- F* ([3]; PO 5 mg/kg): 13.46%
- AUC(0-inf) ([3]; in vivo, IV 5 mg/kg): 884 ng·h/mL
- AUC(0-t) ([3]; in vivo, IV 5 mg/kg): 844 ng·h/mL
- Cmax ([3]; in vivo, IV 5 mg/kg): 271 ng/mL
- Tmax ([3]; in vivo, IV 5 mg/kg): 0.083 h
- clearance ([3]; in vivo, IV 5 mg/kg): 97.3 mL/min/kg
- half-life ([3]; in vivo, IV 5 mg/kg): 5.75 h
- MRT inf ([3]; in vivo, IV 5 mg/kg): 6.37 h
- Vd ([3]; in vivo, IV 5 mg/kg, read-out: Vz): 48 L/kg
- AUC(0-inf) ([3]; in vivo, PO 5 mg/kg): 652 ng·h/mL
- AUC(0-t) ([3]; in vivo, PO 5 mg/kg): 129 ng·h/mL
- Cmax ([3]; in vivo, PO 5 mg/kg): 11.6 ng/mL
- Tmax ([3]; in vivo, PO 5 mg/kg): 5.33 h
- half-life ([3]; in vivo, PO 5 mg/kg): 9.14 h
- MRT inf ([3]; in vivo, PO 5 mg/kg): 12.6 h
Structure (SMILES): CCN1CCN(c2ccc(Nc3cc(-n4c(Nc5c(Cl)c(OC)cc(OC)c5Cl)nc5ccccc54)ncn3)cc2)CC1 [Example 1, N-(2,6-dichloro-3,5-dimethoxyphenyl)-1-(6-((4-(4-ethylpiperazin-1-yl)phenyl)amino)pyrimidin-4-yl)-1H-benz[d]imidazol-2-amine]
